Patent US12428406B2 (PMV Pharmaceuticals, Inc., priority 2019, dated 2025)

Molecular target: T1, p53 Y220C (Homo sapiens, UniProt P04637, Y220C)
T1 construct: The recombinant protein was a truncation mutant containing only amino acids 94-312 of p53; made in house; host or cells: E. coli
Assay: In vitro DNA binding activity assay (HTRF / TR-FRET): stabilization of p53 Y220C and increase of its DNA binding activity
Assay type: biochemical
Conditions: recombinant His-tagged p53 Y220C DNA binding domain (aa 94-312), biotin-labeled consensus DNA, incubated at 27° C. or 29° C. for 60 min
Outline: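 Compounds from 4.5 mM DMSO stocks, 3-fold serial dilutions; room-temperature incubations of 15 and 20 min. SC150 = concentration raising DNA binding by 50% over no-compound control.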

T1 sequence (P04637 94-312, change not shown): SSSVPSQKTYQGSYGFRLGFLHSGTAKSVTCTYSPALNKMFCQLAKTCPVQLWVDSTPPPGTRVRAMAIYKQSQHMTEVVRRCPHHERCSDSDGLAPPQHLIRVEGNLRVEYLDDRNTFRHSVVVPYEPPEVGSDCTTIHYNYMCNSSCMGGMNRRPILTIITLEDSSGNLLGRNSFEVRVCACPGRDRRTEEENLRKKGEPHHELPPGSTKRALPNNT

SMILES | SC150 (concentration of the compound required to increase the DNA binding activity by 50%)
CNC(=O)c1cc(OC)c(NCC#Cc2cc3c(N[C@@H]4CCN(C)C[C@@H]4F)cccc3n2CC(F)(F)F)cn1 [Compound 1065A, 5-{[3-(4-{[(3S,4R)-3-fluoro-1-methylpiperidin-4-yl]amino}-1-(2,2,2-trifluoroethyl)-1H-indol-2-yl)prop-2-yn-1-yl]amino}-4-methoxy-N-methylpyridine-2-carboxamide] | + (+ = 0 μM ≤ SC150 < 0.05 μM)
CN1CC[C@@H](Nc2cccc3c2cc(C#CCNC(=O)c2cnn(C(C)(C)C)c2)n3CC(F)(F)F)[C@@H](F)C1 [Compound 1066A, 1-tert-butyl-N-[3-(4-{[(3S,4R)-3-fluoro-1-methylpiperidin-4-yl]amino}-1-(2,2,2-trifluoroethyl)-1H-indol-2-yl)prop-2-yn-1-yl]-1H-pyrazole-4-carboxamide] | + (+ = 0 μM ≤ SC150 < 0.05 μM)
COc1cc(S(C)(=O)=O)ccc1NCC#Cc1cc2c(N[C@@H]3CCN(C(C)(C)C)C[C@@H]3F)cccc2n1CC(F)(F)F [Compound 1068A, N-((3S,4R)-1-(tert-butyl)-3-fluoropiperidin-4-yl)-2-(3-((2-methoxy-4-(methylsulfonyl)phenyl)amino)prop-1-yn-1-yl)-1-(2,2,2-trifluoroethyl)-1H-indol-4-amine] | + (+ = 0 μM ≤ SC150 < 0.05 μM)
COc1cc(S(C)(=O)=O)ccc1NCC#Cc1cc2c(N[C@H]3CCN(C(C)(C)C)C[C@H]3F)cccc2n1CC(F)(F)F [Compound 1069A, N-[(3R,4S)-1-tert-butyl-3-fluoropiperidin-4-yl]-2-{3-[(4-methanesulfonyl-2-methoxyphenyl)amino]prop-1-yn-1-yl}-1-(2,2,2-trifluoroethyl)-1H-indol-4-amine] | + (+ = 0 μM ≤ SC150 < 0.05 μM)
COc1cc(C(=O)O)ccc1NCC#Cc1cc2c(N[C@@H]3CCN(C(C)(C)C)C[C@@H]3F)cccc2n1CC(F)(F)F [Compound 1070A, 4-{[3-(4-{[(3S,4R)-1-tert-butyl-3-fluoropiperidin-4-yl]amino}-1-(2,2,2-trifluoroethyl)-1H-indol-2-yl)prop-2-yn-1-yl]amino}-3-methoxybenzoic acid] | + (+ = 0 μM ≤ SC150 < 0.05 μM)
COc1cc(C(=O)O)ccc1NCC#Cc1cc2c(N[C@H]3CCN(C(C)(C)C)C[C@H]3F)cccc2n1CC(F)(F)F [Compound 1071A, 4-{[3-(4-{[(3R,4S)-1-tert-butyl-3-fluoropiperidin-4-yl]amino}-1-(2,2,2-trifluoroethyl)-1H-indol-2-yl)prop-2-yn-1-yl]amino}-3-methoxybenzoic acid] | + (+ = 0 μM ≤ SC150 < 0.05 μM)
CNC(=O)c1ccc(NCC#Cc2cc3c(N[C@@H]4CCN(C(C)(C)C)C[C@@H]4F)cccc3n2CC(F)(F)F)c(OC)c1 [Compound 1072A, 4-{[3-(4-{[(3S,4R)-1-tert-butyl-3-fluoropiperidin-4-yl]amino}-1-(2,2,2-trifluoroethyl)-1H-indol-2-yl)prop-2-yn-1-yl]amino}-3-methoxy-N-methylbenzamide] | + (+ = 0 μM ≤ SC150 < 0.05 μM)

Now from value to compound:

SC150 (concentration of the compound required to increase the DNA binding activity by 50%) | SMILES
+ (+ = 0 μM ≤ SC150 < 0.05 μM) | CNC(=O)c1ccc(NCC#Cc2cc3c(N[C@H]4CCN(C(C)(C)C)C[C@H]4F)cccc3n2CC(F)(F)F)c(OC)c1 [Compound 1073A, 4-{[3-(4-{[(3R,4S)-1-tert-butyl-3-fluoropiperidin-4-yl]amino}-1-(2,2,2-trifluoroethyl)-1H-indol-2-yl)prop-2-yn-1-yl]amino}-3-methoxy-N-methylbenzamide]
+ (+ = 0 μM ≤ SC150 < 0.05 μM) | CCN1CC[C@@H](Nc2cccc3c2cc(C#CCNc2ccc(C(=O)NC)cc2OC)n3CC(F)(F)F)[C@@H](F)C1 [Compound 1074A, 4-{[3-(4-{[(3S,4R)-1-ethyl-3-fluoropiperidin-4-yl]amino}-1-(2,2,2-trifluoroethyl)-1H-indol-2-yl)prop-2-yn-1-yl]amino}-3-methoxy-N-methylbenzamide]
+ (+ = 0 μM ≤ SC150 < 0.05 μM) | CCN1CC[C@H](Nc2cccc3c2cc(C#CCNc2ccc(C(=O)NC)cc2OC)n3CC(F)(F)F)[C@H](F)C1 [Compound 1075A, 4-{[3-(4-{[(3R,4S)-1-ethyl-3-fluoropiperidin-4-yl]amino}-1-(2,2,2-trifluoroethyl)-1H-indol-2-yl)prop-2-yn-1-yl]amino}-3-methoxy-N-methvlbenzamide]
